Numbered stars: 1 amine (or outer) side, 2 acyl side, 3 side chain; on linkers, the order of the positions; unused ones are H or OH. Bridge positions count the residues as written; N and C are the ends. Square brackets hold non-standard residues; d marks the D form. Peptide text beside a SMILES is read from it. * marks the point of attachment. hPhe(3-Cl-4-CF3) = N[C@@H](CCc1ccc(C(F)(F)F)c(Cl)c1)C(=O)O; X46 = CN([C@@H](CCC1CN(C(=O)OC(C)(C)C)C1)C(=O)[*:2])[*:1]; X13 = O=C([C@H](CCc1ccc(OC(F)(F)F)c(Cl)c1)N[*:1])[*:2]; X21 = O=C([C@H](CCc1ccc(OC(F)(F)F)c(F)c1)N[*:1])[*:2]; X23 = N#Cc1cc(CC[C@H](N[*:1])C(=O)[*:2])ccc1C(F)(F)F; X33 = O=C([C@H](CCc1c(F)c(F)c(F)c(F)c1F)N[*:1])[*:2]; X8 = CC(C)Oc1cc(CC[C@H](N[*:1])C(=O)[*:2])cc(Cl)c1Cl; X15 = O=C([C@H](CCc1cc(Cl)c(Cl)c(Cl)c1)N[*:1])[*:2]; X6 = O=C([C@H](CCc1ccc2c(c1)OC(F)(F)O2)N[*:1])[*:2]; X1 = O=C([C@H](CCc1ccc(OC(F)F)c(F)c1)N[*:1])[*:2]; X118 = O=C([C@H](CCc1c(F)cc(F)cc1F)N[*:1])[*:2]; X103 = O=C([C@H](CCc1c(F)cccc1Cl)N[*:1])[*:2]; NMePhe(4-Cl) = CN[C@@H](Cc1ccc(Cl)cc1)C(=O)O; X11 = O=C([C@H](CCc1ccc2occc2c1)N[*:1])[*:2]; X30 = O=C([C@H](CCc1ccc(Cl)cc1F)N[*:1])[*:2]; X99 = O=C([C@H](CCc1ccc(F)cc1F)N[*:1])[*:2]; X2 = COc1ccc(CC[C@H](N[*:1])C(=O)[*:2])cn1; NMeGly(cPent) = CN[C@H](C(=O)O)C1CCCC1; NMeCha = CN[C@@H](CC1CCCCC1)C(=O)O; NMeChg = CN[C@H](C(=O)O)C1CCCCC1; NMeF = CN[C@@H](Cc1ccccc1)C(=O)O; NMeD = CN[C@@H](CC(=O)O)C(=O)O; NMeL = CN[C@@H](CC(C)C)C(=O)O; NMeV = CN[C@H](C(=O)O)C(C)C; d(β3hA) = C[C@@H](N)CC(=O)O; NMeA = CN[C@@H](C)C(=O)O; Piperidide = C1CCN(*)CC1; Ac5c = NC1(C(=O)O)CCCC1; Aze = O=C(O)[C@@H]1CCN1; Sar = CNCC(=O)O
Target: protein-protein interaction between Kras and SOS1 (biotin-tagged human Kras loaded with GDP, His-tagged human SOS1) (Homo sapiens (Human), UniProt P01116, G12D)
Experiment: Protein-protein interaction inhibition between Kras and SOS1 (KrasG12D-SOS PPI) using AlphaScreen;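 further: kras produced in E. coli, Ni-coupled donor beads and streptavidin acceptor beads, excitation 680 nm with emission detected at 520–620 nm via singlet oxygen transfer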
Format: biochemical
Details: AlphaScreen; biotin-tagged human Kras loaded with GDP, His-tagged human SOS1; read-out: KRAS G12D-SOS PPI IC50

Row | Structure (SMILES) | IC50
1 | CC[C@H](C)[C@@H]1NC(=O)[C@H](CC(C)C)N(C)C(=O)C[C@@H](C(=O)N2CCCCC2)N(C)C(=O)[C@H](C2CCCCC2)N(C)C(=O)C2(CCCC2)NC(=O)[C@H](CCC2CN(C(=O)OC(C)(C)C)C2)N(C)C(=O)[C@H](CCc2ccc(C(F)(F)F)c(Cl)c2)NC(=O)CN(C)C(=O)[C@H](CC2CCCCC2)N(C)C(=O)CN(C)C(=O)CN(C)C1=O [Compound 2056, tert-butyl 3-[2-[(8S,11S,17S,26S,29S,33S,36S)-11-[2-[3-chloro-4-(trifluoromethyl)phenyl]ethyl]-36-cyclohexyl-17-(cyclohexylmethyl)-29-isobutyl-9,15,18,21,24,30,34,37-octamethyl-26-[(1S)-1-methylpropyl]-7,10,13,16,19,22,25,28,31,35,38-undecaoxo-33-(piperidine-1-carbonyl)-6,9,12,15,18,21,24,27,30,34,37-undecazaspiro[4.3 3]octatriacontan-8-yl]ethyl]azetidine-1-carboxylate] ([NMeL]I[Sar][Sar][NMeCha][Sar][hPhe(3-Cl-4-CF3)][X46][Ac5c][NMeChg][NMeD]-Piperidide; lactam N-11) | 13 nM
2 | CC[C@H](C)[C@@H]1NC(=O)[C@H](CC(C)C)N(C)C(=O)C[C@@H](C(=O)N2CCCCC2)N(C)C(=O)[C@H](C2CCCC2)N(C)C(=O)C2(CCCC2)NC(=O)[C@@H]2CCCN2C(=O)[C@H](CCc2ccc(OC(F)(F)F)c(Cl)c2)NC(=O)CN(C)C(=O)[C@H](CC2CCCCC2)N(C)C(=O)[C@@H]2CCN2C(=O)[C@H](C)N(C)C1=O [Compound 2057] ([NMeL]I[NMeA][Aze][NMeCha][Sar][X13]P[Ac5c][NMeGly(cPent)][NMeD]-Piperidide; lactam N-11 (inferred); C-terminus assumed) | 1.1 nM
3 | CC[C@H](C)[C@@H]1NC(=O)[C@H](C)N(C)C(=O)C[C@@H](C(=O)N2CCCCC2)N(C)C(=O)[C@H](C2CCCCC2)N(C)C(=O)C2(CCCC2)NC(=O)[C@@H]2CCCN2C(=O)[C@H](CCc2cc(Cl)c(Cl)c(Cl)c2)NC(=O)CN(C)C(=O)[C@H](CC2CCCCC2)N(C)C(=O)CN(C)C(=O)CN(C)C1=O [Compound 2059, (3S,9S,18S,21S,25S,28S,34S)-28-cyclohexyl-9-(cyclohexylmethyl)-7,10,13,16,21,22,26,29-octamethyl-18-[(1S)-1-methylpropyl]-25-(piperidine-1-carbonyl)-3-[2-(3,4,5-trichlorophenyl)ethyl]spiro[1,4,7,10,13,16,19,22,26,29,32-undecazabicyclo[32.3.0]heptatriacontane-31,1′-cyclopentane]-2,5,8,11,14,17,20,23,27,30,33-undecone] ([NMeA]I[Sar][Sar][NMeCha][Sar][X15]P[Ac5c][NMeChg][NMeD]-Piperidide; lactam N-11) | 0.96 nM
4 | CC[C@H](C)[C@@H]1NC(=O)[C@H](C)N(C)C(=O)C[C@@H](C(=O)N2CCCCC2)N(C)C(=O)[C@H](C2CCCCC2)N(C)C(=O)C2(CCCC2)NC(=O)[C@@H]2CCCN2C(=O)[C@H](CCc2cc(Cl)c(Cl)c(OC(C)C)c2)NC(=O)CN(C)C(=O)[C@H](CC2CCCCC2)N(C)C(=O)CN(C)C(=O)CN(C)C1=O [Compound 2062] ([NMeA]I[Sar][Sar][NMeCha][Sar][X8]P[Ac5c][NMeChg][NMeD]-Piperidide; lactam N-11) | 6.9 nM
5 | CC[C@H](C)[C@@H]1NC(=O)[C@H](CC(C)C)N(C)C(=O)C[C@@H](C(=O)N2CCCCC2)N(C)C(=O)[C@H](C2CCCC2)N(C)C(=O)C2(CCCC2)NC(=O)[C@@H]2CCCN2C(=O)[C@H](CCc2ccc3occc3c2)NC(=O)CN(C)C(=O)[C@H](CC2CCCCC2)N(C)C(=O)[C@@H]2CCN2C(=O)[C@H](C)N(C)C1=O [Compound 2063] ([NMeL]I[NMeA][Aze][NMeCha][Sar][X11]P[Ac5c][NMeGly(cPent)][NMeD]-Piperidide; lactam N-11 (inferred); C-terminus assumed) | 8.8 nM
6 | CC[C@H](C)[C@@H]1NC(=O)[C@H](CC(C)C)N(C)C(=O)C[C@@H](C(=O)N2CCCCC2)N(C)C(=O)[C@H](C2CCCC2)N(C)C(=O)C2(CCCC2)NC(=O)[C@@H]2CCCN2C(=O)[C@H](CCc2ccc(OC(F)(F)F)c(F)c2)NC(=O)CN(C)C(=O)[C@H](CC2CCCCC2)N(C)C(=O)[C@@H]2CCN2C(=O)[C@H](C)N(C)C1=O [Compound 2067] ([NMeL]I[NMeA][Aze][NMeCha][Sar][X21]P[Ac5c][NMeGly(cPent)][NMeD]-Piperidide; lactam N-11 (inferred); C-terminus assumed) | 0.84 nM
7 | CC[C@H](C)[C@@H]1NC(=O)[C@H](CC(C)C)N(C)C(=O)C[C@@H](C(=O)N2CCCCC2)N(C)C(=O)[C@H](C2CCCC2)N(C)C(=O)C2(CCCC2)NC(=O)[C@@H]2CCCN2C(=O)[C@H](CCc2ccc(C(F)(F)F)c(C#N)c2)NC(=O)CN(C)C(=O)[C@H](CC2CCCCC2)N(C)C(=O)[C@@H]2CCN2C(=O)[C@H](C)N(C)C1=O [Compound 2072] ([NMeL]I[NMeA][Aze][NMeCha][Sar][X23]P[Ac5c][NMeGly(cPent)][NMeD]-Piperidide; lactam N-11 (inferred); C-terminus assumed) | 0.42 nM
8 | CC[C@H](C)[C@@H]1NC(=O)[C@H](CC(C)C)N(C)C(=O)C[C@@H](C(=O)N2CCCCC2)N(C)C(=O)[C@H](C2CCCC2)N(C)C(=O)C2(CCCC2)NC(=O)[C@@H]2CCCN2C(=O)[C@H](CCc2ccc3c(c2)OC(F)(F)O3)NC(=O)CN(C)C(=O)[C@H](CC2CCCCC2)N(C)C(=O)[C@@H]2CCN2C(=O)[C@H](C)N(C)C1=O [Compound 2074] ([NMeL]I[NMeA][Aze][NMeCha][Sar][X6]P[Ac5c][NMeGly(cPent)][NMeD]-Piperidide; lactam N-11 (inferred); C-terminus assumed) | 2.7 nM
9 | CC[C@H](C)[C@@H]1NC(=O)[C@H](CC(C)C)N(C)C(=O)C[C@@H](C(=O)N2CCCCC2)N(C)C(=O)[C@H](C2CCCC2)N(C)C(=O)C2(CCCC2)NC(=O)[C@@H]2CCCN2C(=O)[C@H](CCc2ccc(OC(F)F)c(F)c2)NC(=O)CN(C)C(=O)[C@H](CC2CCCCC2)N(C)C(=O)[C@@H]2CCN2C(=O)[C@H](C)N(C)C1=O [Compound 2076] ([NMeL]I[NMeA][Aze][NMeCha][Sar][X1]P[Ac5c][NMeGly(cPent)][NMeD]-Piperidide; lactam N-11 (inferred); C-terminus assumed) | 2.5 nM
10 | CC[C@H](C)[C@@H]1NC(=O)[C@H](C)N(C)C(=O)C[C@@H](C(=O)N2CCCCC2)N(C)C(=O)[C@H](C(C)C)N(C)C(=O)C2(CCCC2)NC(=O)[C@@H]2CCCN2C(=O)[C@H](CCc2cc(Cl)c(Cl)c(OC(C)C)c2)NC(=O)CN(C)C(=O)[C@H](CC2CCCCC2)N(C)C(=O)CN(C)C(=O)CN(C)C1=O [Compound 2079] ([NMeA]I[Sar][Sar][NMeCha][Sar][X8]P[Ac5c][NMeV][NMeD]-Piperidide; lactam N-11) | 17 nM
11 | CC[C@H](C)[C@@H]1NC(=O)[C@H](CC(C)C)N(C)C(=O)C[C@@H](C(=O)N2CCCCC2)N(C)C(=O)[C@H](C2CCCC2)N(C)C(=O)C2(CCCC2)NC(=O)[C@@H]2CCCN2C(=O)[C@H](CCc2ccc(OC)nc2)NC(=O)CN(C)C(=O)[C@H](CC2CCCCC2)N(C)C(=O)[C@@H]2CCN2C(=O)[C@H](C)N(C)C1=O [Compound 2084] ([NMeL]I[NMeA][Aze][NMeCha][Sar][X2]P[Ac5c][NMeGly(cPent)][NMeD]-Piperidide; lactam N-11 (inferred); C-terminus assumed) | 130 nM
12 | CC[C@H](C)[C@@H]1NC(=O)[C@H](C)N(C)C(=O)C[C@@H](C)NC(=O)[C@H](CC(C)C)N(C)C(=O)[C@H](Cc2ccccc2)N(C)C(=O)[C@H](CC(C)C)NC(=O)[C@H](CCc2ccc(Cl)cc2F)NC(=O)CN(C)C(=O)[C@H](Cc2ccc(Cl)cc2)N(C)C(=O)CN(C)C(=O)CN(C)C1=O [Compound 2086] (cyclo(I[Sar][Sar][NMePhe(4-Cl)][Sar][X30]L[NMeF][NMeL][d(β3hA)][NMeA])) | 100 nM
13 | CC[C@H](C)[C@@H]1NC(=O)[C@H](C)N(C)C(=O)C[C@@H](C)NC(=O)[C@H](CC(C)C)N(C)C(=O)[C@H](Cc2ccccc2)N(C)C(=O)[C@H](CC(C)C)NC(=O)[C@H](CCc2ccc(C(F)(F)F)c(Cl)c2)NC(=O)CN(C)C(=O)[C@H](Cc2ccc(Cl)cc2)N(C)C(=O)CN(C)C(=O)CN(C)C1=O [Compound 2088] (cyclo(I[Sar][Sar][NMePhe(4-Cl)][Sar][hPhe(3-Cl-4-CF3)]L[NMeF][NMeL][d(β3hA)][NMeA])) | 30 nM
14 | CC[C@H](C)[C@@H]1NC(=O)[C@H](C)N(C)C(=O)C[C@@H](C)NC(=O)[C@H](CC(C)C)N(C)C(=O)[C@H](Cc2ccccc2)N(C)C(=O)[C@H](CC(C)C)NC(=O)[C@H](CCc2ccc(F)cc2F)NC(=O)CN(C)C(=O)[C@H](Cc2ccc(Cl)cc2)N(C)C(=O)CN(C)C(=O)CN(C)C1=O [Compound 2089] (cyclo(I[Sar][Sar][NMePhe(4-Cl)][Sar][X99]L[NMeF][NMeL][d(β3hA)][NMeA])) | 300 nM
15 | CC[C@H](C)[C@@H]1NC(=O)[C@H](C)N(C)C(=O)C[C@@H](C)NC(=O)[C@H](CC(C)C)N(C)C(=O)[C@H](Cc2ccccc2)N(C)C(=O)[C@H](CC(C)C)NC(=O)[C@H](CCc2c(F)cc(F)cc2F)NC(=O)CN(C)C(=O)[C@H](Cc2ccc(Cl)cc2)N(C)C(=O)CN(C)C(=O)CN(C)C1=O [Compound 2090] (cyclo(I[Sar][Sar][NMePhe(4-Cl)][Sar][X118]L[NMeF][NMeL][d(β3hA)][NMeA])) | 380 nM
16 | CC[C@H](C)[C@@H]1NC(=O)[C@H](C)N(C)C(=O)C[C@@H](C)NC(=O)[C@H](CC(C)C)N(C)C(=O)[C@H](Cc2ccccc2)N(C)C(=O)[C@H](CC(C)C)NC(=O)[C@H](CCc2c(F)c(F)c(F)c(F)c2F)NC(=O)CN(C)C(=O)[C@H](Cc2ccc(Cl)cc2)N(C)C(=O)CN(C)C(=O)CN(C)C1=O [Compound 2091] (cyclo(I[Sar][Sar][NMePhe(4-Cl)][Sar][X33]L[NMeF][NMeL][d(β3hA)][NMeA])) | 270 nM
17 | CC[C@H](C)[C@@H]1NC(=O)[C@H](C)N(C)C(=O)C[C@@H](C)NC(=O)[C@H](CC(C)C)N(C)C(=O)[C@H](Cc2ccccc2)N(C)C(=O)[C@H](CC(C)C)NC(=O)[C@H](CCc2c(F)cccc2Cl)NC(=O)CN(C)C(=O)[C@H](Cc2ccc(Cl)cc2)N(C)C(=O)CN(C)C(=O)CN(C)C1=O [Compound 2092] (cyclo(I[Sar][Sar][NMePhe(4-Cl)][Sar][X103]L[NMeF][NMeL][d(β3hA)][NMeA])) | 350 nM
